Reference: paper PMC6083693, “Ligand-based pharmacophore model for the discovery of novel CXCR2 antagonists as anti-cancer metastatic agents” (Royal Society Open Science, 2018)
Like-named read-outs stand apart in the source and are kept apart here.

Tests used:
Type in all cases: cell-based
CXCR2 = target: T1, CXCR2 (Homo sapiens, UniProt P25025); assay: CXCR2 antagonistic activity assay (IL-8-induced intracellular calcium change, Fluo-4 AM, HEK293 cells stably expressing Gα16 and CXCR2); conditions: for CXCR2 antagonistic activity (in words): HEK293 cells expressing Gα16 and CXCR2
T1 construct: expressed in transfected cells; host or cells: HEK293 cells stably expressing Gα16 and CXCR2
T1 sequence (P25025 1-360): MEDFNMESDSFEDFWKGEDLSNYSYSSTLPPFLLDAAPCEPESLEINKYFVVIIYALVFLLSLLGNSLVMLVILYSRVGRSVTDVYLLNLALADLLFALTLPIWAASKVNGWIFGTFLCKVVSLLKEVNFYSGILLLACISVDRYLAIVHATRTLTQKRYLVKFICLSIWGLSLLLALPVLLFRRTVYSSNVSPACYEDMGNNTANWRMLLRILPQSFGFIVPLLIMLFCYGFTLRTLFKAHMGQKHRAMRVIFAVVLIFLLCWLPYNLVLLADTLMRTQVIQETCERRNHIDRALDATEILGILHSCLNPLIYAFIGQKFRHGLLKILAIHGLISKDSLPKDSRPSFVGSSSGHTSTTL
Protocol: Human embryonic kidney 293 (HEK293) cells stably expressing Gα16 and CXCR2 were seeded onto 96-well plates and incubated for 24 h. Cells were loaded with 2 µmol l^−1 Fluo-4 AM in Hank's balanced salt solution (HBSS, containing KCl 5.4 mmol l^−1, Na2HPO4 0.3 mmol l^−1, KH2PO4 0.4 mmol l^−1, NaHCO3 4.2 mmol l^−1, CaCl2 1.3 mmol l^−1, MgCl2 0.5 mmol l^−1, Mg2SO4 0.6 mmol l^−1, NaCl 137 mmol l^−1, BSA 5 g l^−1, glucose 5.6 mmol l^−1 and sulfinpyrazone 250 µmol l^−1, pH 7.4) at 37°C for 45 min. The excess dye was removed and 50 µl of HBSS containing test compounds was added. After incubation at room temperature for 10 min, 25 µl of HBSS containing IL-8 was dispensed into the well using a FlexStation II microplate reader (Molecular Devices, Sunnyvale, CA, USA), and intracellular calcium change was recorded with an excitation wavelength of 485 nm and an emission wavelength of 525 nm. The half maximal inhibitory concentrations (IC50) of compounds were determined with the […] PRISM software by constructing their dose–response curves.

NCI-H1299 cells [1] = assay: Wound healing assay (cell migration); conditions: Homo sapiens; NCI-H1299, 50 µg ml^−1, 48 h treatment; read-out: cell migration inhibitory rate
Protocol: NCI-H1299 cells (5 × 10^5 cell well^−1) were seeded in a six-well tissue culture plate and grown to 90% confluence. After the medium was removed, a gap with constant width was created in the centre of the cell well by scratching the monolayer with a sterile yellow micropipette tip. […] The wound closure was monitored and photographed at 0, 12, 24, 36 and 48 h with the IMAGEPRO software. The cell migration inhibitory rate was calculated as % = [1 − (0 h wound area − 12, 24, 36 or 48 h wound area)/0 h wound area] × 100.
The wound area was calculated with the IMAGEPRO software.

NCI-H1299 cells [2] = assay: Anti-proliferation assay (MTT); conditions: NCI-H1299, 0.1, 1, 10 and 100 µg ml^−1, 72 h
Protocol: NCI-H1299 cells (provided by Tumor Pharmacology and Endocrine Laboratory, College of Pharmaceutical Sciences, Zhe Jiang University) were seeded in 96-well plates at a density of 4000 cells well^−1. After 24 h of adherence, cells were incubated with medium alone or medium containing test compounds for 72 h. Four different concentrations (100, 10, 1 and 0.1 µg ml^−1) of both antagonists were used. Cell proliferation was determined by the thiazolyl blue tetrazolium bromide (MTT) assay. Growth inhibition was calculated as % = [1 − (A/B)] × 100, where A and B were the absorbance of treated and untreated cells, respectively.
The highly metastatic NCI-H1299 lung cancer cell line was selected for the following in vitro biological evaluation.

[3] = HEK293 cells expressing Gα16 and CXCR2, IL-8 stimulated calcium change, read-out: CXCR2 IC50

Row | Structure (SMILES) | IC50 (CXCR2; [3]) [µM] | further results
1 | CN(C)C(=O)c1cccc(Nc2nnc(-c3ccccc3)[nH]2)c1O [Compound 1a, 2-hydroxy-N,N-dimethyl-3-((5-phenyl-4H-1,2,4-triazol-3-yl)amino)benzamide] | 76 | 
2 | N#Cc1ccc(Nc2nnc(-c3ccccc3)[nH]2)c(O)c1 [Compound 1b, 3-hydroxy-4-((5-phenyl-4H-1,2,4-triazol-3-yl)amino)benzonitrile] | 18.5 | 
3 | N#Cc1ccc(Nc2nnc(-c3ccccc3Br)[nH]2)c(O)c1 [Compound 1c, 4-((5-(2-bromophenyl)-4H-1,2,4-triazol-3-yl)amino)-3-hydroxybenzonitrile] | 25.4 | 
4 | CC(C)S(=O)(=O)c1c(Cl)ccc(Nc2nnc(-c3ccccc3)[nH]2)c1O [Compound 1e, 3-chloro-2-(isopropylsulfonyl)-6-((5-phenyl-4H-1,2,4-triazol-3-yl)amino)phenol] |  | IC50 (CXCR2): 14.8 µM; inhibition at 50 µg/mL (NCI-H1299 cells [1]): 72%; cytotoxicity (growth inhibition, MTT) (NCI-H1299 cells [2]): no cytotoxicity

Now from value to molecule, other results behind:

Row | IC50 (CXCR2; [3]) [µM] | Structure (SMILES) | further results
5 | > 100 | CN(C)C(=O)c1cccc(Nc2nccc(Nc3ccccc3)n2)c1O [Compound 2, 2-hydroxy-N,N-dimethyl-3-((4-(phenylamino)pyrimidin-2-yl)amino)benzamide] | CXCR2 antagonistic activity (in words) (CXCR2): loss of CXCR2 antagonistic activity
6 | > 100 | CN(C)C(=O)c1cccc(Nc2nn(Cc3ccccc3)c(=O)[nH]2)c1O [Compound 3, 3-((1-benzyl-5-oxo-4,5-dihydro-1H-1,2,4-triazol-3-yl)amino)-2-hydroxy-N,N-dimethylbenzamide] | CXCR2 antagonistic activity (in words) (CXCR2): loss of CXCR2 antagonistic activity
7 | > 100 | N#Cc1ccc(Nc2nnc(-c3ccc(C(F)(F)F)cc3)[nH]2)c(O)c1 [Compound 1d, 3-hydroxy-4-((5-(4-(trifluoromethyl)phenyl)-4H-1,2,4-triazol-3-yl)amino)benzonitrile] | 
